Test results published in ChEMBL document CHEMBL4406823 (Eur J Med Chem, 2019).
pIC50: −log10 of the molar value. Active and inactive are the calls of the source. No cut-off for these calls is given here.

Assays:
MDA-MB-231 [1] = test: Inhibition of cell migration in human MDA-MB-231 cells at 5 nM incubated for 24 to 48 hrs by wound healing assay; type: functional, cell-based
MDA-MB-231 [2] = test: Induction of mitochondrial membrane depolarization in human MDA-MB-231 cells at 50 to 100 nM incubated for 24 to 48 hrs by JC1 staining based flow cytometric method; type: functional, cell-based
MDA-MB-231 [3] = test: Antiproliferative activity against human MDA-MB-231 cells assessed as inhibition of cell proliferation incubated for 72 hrs by MTT assay; type: functional, cell-based; settings: MDA-MB-231, 72 h
Tubulin (Bos taurus) [4] = target: T1, Tubulin (Bos taurus) (UniProt Q6B856+Q862L2+Q862F3); test: Displacement of [3H]-colchicine from bovine brain tubulin at 5 uM incubated for 1 hr by relative to control
MDA-MB-231 [5] = test: Induction of cell cycle arrest in human MDA-MB-231 cells assessed as reduction in cdc25c protein expression at 50 nM incubated for 24 to 48 hrs by western blot analysis; type: functional, cell-based
MDA-MB-231 [6] = test: Induction of apoptosis in human MDA-MB-231 cells assessed as reduction in Mcl1 protein expression at 50 nM incubated for 24 hrs by Western blot analysis; type: functional, cell-based
[7] = Antiproliferative activity against human CEM/VBL100 cells overexpressing P-gp assessed as inhibition of cell growth incubated for 72 hrs by MTT assay; type: functional; settings: CEM/VBL100, 72 h
MDA-MB-231 [8] = test: Induction of cell cycle arrest in human MDA-MB-231 cells assessed as increase in accumulation of cells at G2/M phase at 10 nM incubated for 24 hrs by PI staining based flow cytometric analysis relative to control; type: functional
MDA-MB-231 [9] = test: Induction of cell cycle arrest in human MDA-MB-231 cells assessed as effect on cyclin B protein expression at 50 to 100 nM incubated for 24 to 48 hrs by western blot analysis; type: functional, cell-based
Tubulin = Tubulin (Bos taurus, UniProt Q6B856+Q862L2+Q862F3); test: Inhibition of bovine brain tubulin assembly using GTP as substrate incubated for 20 mins by spectrophotometric method
[10] = Toxicity in C57BL/6 mouse allografted with mouse E0771 cells assessed as change in body weight at 15 mg/kg, ip administered every other day; type: organism-based; settings: in vivo
[11] = Cytotoxicity against human astrocytes assessed as reduction in cell viability incubated for 72 hrs by MTT assay; type: cell-based, Astrocyte
E0771 [12] = test: Antitumour activity against mouse E0771 cells allografted in C57BL/6 mouse assessed as reduction in tumor burden at 5.0 mg/kg, ip administrated every other day by caliper method; type: functional, organism-based
MDA-MB-231 [13] = test: Induction of apoptosis in human MDA-MB-231 cells assessed as reduction in XIAP protein expression at 50 to 100 nM incubated for 24 to 48 hrs by Western blot analysis; type: functional, cell-based
E0771 [14] = test: Antitumour activity against mouse E0771 cells allografted in ip dosed C57BL/6 mouse assessed as reduction in tumor burden administrated every other day by caliper method; type: functional, organism-based
HT-29 = test: cells; settings: Homo sapiens, HT-29, 72 h
Description: Antiproliferative activity against human HT-29 cells assessed as inhibition of cell proliferation incubated for 72 hrs by MTT assay

MDA-MB-231 [15] = test: Induction of cell cycle arrest in human MDA-MB-231 cells assessed as increase in p21 protein expression level at 50 to 100 nM incubated for 24 to 48 hrs by western blot analysis; type: functional, cell-based
MDA-MB-231 [16] = test: Induction of cell cycle arrest in human MDA-MB-231 cells assessed as reduction in accumulation of cells at S phase at 10 to 100 nM incubated for 24 hrs by PI staining based flow cytometric analysis; type: functional
MDA-MB-231 [17] = test: Induction of cell cycle arrest in human MDA-MB-231 cells assessed as reduction in cdc2 dephosphorylation level at 50 to 100 nM incubated for 24 to 48 hrs by western blot analysis
Tubulin (Bos taurus) [18] = target: T1, Tubulin (Bos taurus); test: Displacement of [3H]-colchicine from bovine brain tubulin at 0.5 uM incubated for 1 hr by relative to control
HL-60 = test: Antiproliferative activity against human HL60 cells assessed as inhibition of cell proliferation incubated for 72 hrs by MTT assay; type: functional, cell-based; settings: HL-60, 72 h
[19] = Cytotoxicity against PHA-stimulated human PBL assessed as reduction in cell viability incubated for 72 hrs by MTT assay; type: cell-based
MDA-MB-231 [20] = test: Induction of apoptosis in human MDA-MB-231 cells assessed as activation of PARP cleavage at 50 to 100 nM incubated for 48 hrs by Western blot analysis; type: functional, cell-based
[21] = Cytotoxicity against human quiescent PBL assessed as reduction in cell viability incubated for 72 hrs by MTT assay; type: cell-based
E0771 [22] = test: Antitumour activity against mouse E0771 cells allografted in C57BL/6 mouse assessed as reduction in tumor mass at 5.0 to 15 mg/kg, ip administrated for every other day by caliper method; type: functional, organism-based
MCF7 = test: cells; settings: Homo sapiens, MCF7, 72 h
Description: Antiproliferative activity against human MCF7 cells assessed as inhibition of cell proliferation incubated for 72 hrs by MTT assay

MDA-MB-231 [23] = test: Induction of cell cycle arrest in human MDA-MB-231 cells assessed as reduction in accumulation of cells at G1 phase at 10 to 100 nM incubated for 24 hrs by PI staining based flow cytometric analysis; type: functional
CCRF-CEM = test: Antiproliferative activity against human CEM cells assessed as inhibition of cell growth incubated for 72 hrs by MTT assay; type: functional
HeLa = test: cells; settings: Homo sapiens, 72 h
Description: Antiproliferative activity against human HeLa cells assessed as inhibition of cell proliferation incubated for 72 hrs by MTT assay

MDA-MB-231 [24] = test: Induction of apoptosis in human MDA-MB-231 cells at 50 nM incubated for 24 to 48 hrs by annexin V-FITC/propidium iodide staining-based flow cytometry analysis; type: functional, cell-based
MDA-MB-231 [25] = test: Induction of ROS generation in human MDA-MB-231 cells at 50 to 100 nM incubated for 24 to 48 hrs by H2-DCFDA staining based flow cytometric method; type: functional, cell-based
SEM cells = test: Antiproliferative activity against human SEM cells assessed as inhibition of cell proliferation incubated for 72 hrs by MTT assay; type: functional, cell-based

- pIC50 (MDA-MB-231 [3]): 9.15
- inhibition (Tubulin (Bos taurus) [4]): 96%
- IC50 (Tubulin): 350 nM
- pIC50 (HT-29): 10.22
- inhibition (Tubulin (Bos taurus) [18]): 90%
- pIC50 (HL-60): 9.60
- pIC50 (MCF7): 9.68
- GI50 (CCRF-CEM): 0.35 nM
- pIC50 (HeLa): 10.15
SMILES: CCOc1ccc(-c2n[nH]cc2-c2cc(OC)c(OC)c(OC)c2)cc1
- inhibition (MDA-MB-231 [1]): Active
- Activity (MDA-MB-231 [2]): Active
- Activity (MDA-MB-231 [5]): Active
- Activity (MDA-MB-231 [6]): Active
- GI50 [7]: 0.52 nM
- Activity (MDA-MB-231 [8]): 60%
- Activity (MDA-MB-231 [9]): inactive
- Activity [10]: Non-Toxic
- GI50 at 72 h [11]: > 10000 nM
- inhibition (E0771 [12]): Active
- Activity (MDA-MB-231 [13]): Active
- inhibition (E0771 [14]): Dose-dependent effect
- Activity (MDA-MB-231 [15]): Active
- Activity (MDA-MB-231 [16]): Active
- Activity (MDA-MB-231 [17]): Active
- GI50 at 72 h [19]: > 10000 nM
- Activity (MDA-MB-231 [20]): Active
- GI50 at 72 h [21]: > 10000 nM
- inhibition (E0771 [22]): Active
- Activity (MDA-MB-231 [23]): Active
- Activity (MDA-MB-231 [24]): Active
- Activity (MDA-MB-231 [25]): Active
- pIC50 (SEM cells): 10.22
